The target of one data set is purified LasB (Pseudomonas aeruginosa (strain ATCC 15692 / DSM 22644 / CIP 104116 / JCM 14847 / LMG 12228 / 1C / PRS 101 / PAO1), UniProt P14756). As to the kind of experiment: Ex vivo lung homogenate assay with purified LasB. It is filed as biochemical. Here is the method: The lung homogenate was prepared from pig lung, which was stored at −80° C. After thawing the lung tissue was cut into pieces of approximately 1.5 cm diameter and 0.5 to 1 cm thickness. Subsequently the bits were flash frozen in liquid nitrogen and lyophilized for 48 h.
Sequence of purified LasB (P14756 198-498): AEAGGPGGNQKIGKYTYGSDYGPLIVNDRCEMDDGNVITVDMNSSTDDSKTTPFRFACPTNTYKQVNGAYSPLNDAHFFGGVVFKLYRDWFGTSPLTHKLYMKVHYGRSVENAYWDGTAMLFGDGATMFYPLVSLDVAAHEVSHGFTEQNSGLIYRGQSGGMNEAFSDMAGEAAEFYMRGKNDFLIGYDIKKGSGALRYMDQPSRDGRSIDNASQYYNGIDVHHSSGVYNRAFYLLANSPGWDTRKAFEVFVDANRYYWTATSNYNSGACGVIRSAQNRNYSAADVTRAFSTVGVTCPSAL
1.2 g dried tissue was then ball milled using an IKA Tube Drive and the respective 50 mL ball milling tubes. 20 steel balls were used with target rpm of 6000, reversing the spinning direction every 30 seconds for a total of 10 min. After 10 min the tube was detached and inverted to loosen the powder. The ball milling was repeated with the same setup twice again.
To the powdery tissue 50 mL of a 10 mM Tris buffer including 2 mM CaCl2 with a pH of 8.0 was added and the IKA Tube Drive used again with the same settings as described before for 10 min to disperse the tissue powder in the aqueous buffer. The yielded lung homogenate was pipetted into 15 mL falcons and stored at −80° C. until further use.
To perform the LasB activity/inhibition assay a compound dilution was prepared in DMSO yielding a 100 fold concentration of the final concentration in the assay. LasB was diluted from a higher stock solution to a 6 μM stock in the same buffer as used for the lung homogenate. The assay was performed in Eppis. With a stepper pipette 10 μL of the prepared LasB solution was added to the Eppis to yield a final protein concentration of 300 nM. Then 188 μL of thawed lung homogenate was added with a stepper pipette. Finally, 2 μL of the 100 fold compound dilutions were added and mixed by pipetting up and down. The Eppis were incubated at 37° C. with a shaking speed of 1000 rpm for 4 h.
After 4 h, the Eppis were centrifuged at a speed of 14,000 rpm, 4° C. for 10 min to separate the soluble cleaved Elastin fragments from the non-cleaved insoluble part. 100 μL of the obtained supernatant was transferred to new Eppis, and the same volume of concentrated hydrochloric acid added. […]
Peak areas and response ratios were calculated using Xcalibur Quan browser with Amprolium set as internal standard. […]

The target in a further data set is LasB (Pseudomonas aeruginosa (strain ATCC 15692 / DSM 22644 / CIP 104116 / JCM 14847 / LMG 12228 / 1C / PRS 101 / PAO1), UniProt P14756). As to the kind of experiment: In vitro LasB activity assay (fluorogenic substrate). It is filed as biochemical. Conditions: LasB 0.3 nM, substrate 150 μM, mean ± SD. In outline:
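LasB (0.3 nM) preincubated 15 min at 37 °C with compound, then 150 µM Abz-Ala-Gly-Leu-Ala-p-nitrobenzylamide added in 50 mM Tris pH 7.2, 2.5 mM CaCl2, 0.075% Pluronic F-127, 5% DMSO. Fluorescence (ex 340, em 415 nm) followed 60 min at 37 °C. IC50 from blank-corrected v/v0 slopes, nonlinear regression, Hill slope fixed at 1.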

Data set [1] can be described thus: Kinetic turbidimetric solubility assay. It is filed as physicochemical. Conditions: PBS, aqueous buffer, kinetic from dmso stock. As for the experimental part: The desired compounds were sequentially diluted in DMSO in a 96-well plate. 1.5 μL of each well were transferred into another 96-well plate and mixed with 148.5 μL of PBS. Plates were shaken for 5 min at 600 rpm at room temperature, and the absorbance at 620 nm was measured. Absorbance values were normalized by blank subtraction and plotted using GraphPad Prism 8.4.2 (GraphPad Software, San Diego, CA, USA). Solubility (S) was determined based on the First X value of AUC function using a threshold of 0.005.

The next data set is described as follows: in vitro. It counts as in vitro ADME. Particulars: mouse, s9. Here is the method:
For the evaluation of combined phase I and phase II metabolic stability, the compound (1 μM) was incubated with 1 mg/mL pooled liver S9 fraction (Xenotech), 2 mM NADPH, 1 mM UDPGA, 10 mM MgCl2, 5 mM GSH and 0.1 mM PAPS at 37° C. for 0, 5, 15, 30 and 60 min. The metabolic stability of Testosterone (1 μM), verapamil (1 μM) and ketoconazol (1 μM) were determined in parallel to confirm the enzymatic activity of the S9 fraction. The incubation was stopped by precipitation of S9 enzymes with 2 volumes of cold acetonitrile containing internal standard (150 nM Diphenhydramine). Samples were stored on ice for 10 min and precipitated protein was removed by centrifugation (15 min, 4° C., 4,000 rpm). The remaining test compound at different time points was analyzed by LC-MS/MS (TSQ Quantum Access MAX, Thermo Fisher, Dreieich, Germany) and used to determine half-life (t½).

The structures appear in SMILES notation. Like-named read-outs stand apart in the source and are kept apart here.

Sequence of LasB (P14756 198-498): as above

For `CC(C)C(C(=O)NO)C(=O)Nc1ccc(Cn2cc(CNS(=O)(=O)c3ccc(I)cc3)nn2)cc1` (stereo not drawn) [Compound 182, 2-(Hydroxycarbamoyl)-N-[4-[[4-[[(4-iodophenyl)sulfonylamino]methyl]triazol-1-yl]methyl]phenyl]-3-methyl-butanamide], the IC50 came out at 0.127 µM on purified LasB (pig lung homogenate, 300 nM LasB, 4 h, desmosine LC-MSMS, read-out: IC50 ex vivo lung homogenate) and 0.0019 ± 0.0001 µM at LasB.
In the case of `CC(C)CC(C(=O)NO)C(=O)Nc1ccc(Cn2cc(CNS(=O)(=O)c3ccc(Cl)cc3)nn2)cc1` (stereo not drawn) [Compound 161, N-[4-[[4-[[(4-Chlorophenyl)sulfonylamino]methyl]triazol-1-yl]methyl]phenyl]-2-(hydroxycarbamoyl)-4-methyl-pentanamide], the results for the concentration for half-maximal inhibition (IC50) against purified LasB and against LasB were 0.186 µM and 0.0017 ± 0.0001 µM, respectively. Moreover, in data set [1], the solubility at 5 min was greater than 200 µM. In “in vitro”, this compound displayed a half-life at 1 μM of 33.9 ± 1 min.

The IC50 is the concentration that inhibits the measured activity by half. Usually solubility stands for the dissolved amount per volume that the medium holds. Read a low solubility as a poorly soluble substance. Usually half-life stands for how long it takes for the measured level to halve. A lower half-life goes with rapid decline.

For the origin of these results see patent publication US20250170104A1, “INHIBITORS OF PSEUDOMONAS AERUGINOSA VIRULENCE FACTOR Lasß” (priority 2022, published 2025).
